# Source: patent US10266549B2, “ULK1 inhibitors and methods using same” (SALK INSTITUTE FOR BIOLOGICAL STUDIES, priority 2014, dated 2019)
# pIC50: −log10 of the molar value.
# Biological target: ULK1 (Homo sapiens (Human), UniProt O75385)
# Assay: ULK1 inhibition assay (Table 1)
# Assay type: biochemical
# Conditions: * = tested as a mixture of regioisomers
# ULK1, sequence (O75385 whole entry, species assumed): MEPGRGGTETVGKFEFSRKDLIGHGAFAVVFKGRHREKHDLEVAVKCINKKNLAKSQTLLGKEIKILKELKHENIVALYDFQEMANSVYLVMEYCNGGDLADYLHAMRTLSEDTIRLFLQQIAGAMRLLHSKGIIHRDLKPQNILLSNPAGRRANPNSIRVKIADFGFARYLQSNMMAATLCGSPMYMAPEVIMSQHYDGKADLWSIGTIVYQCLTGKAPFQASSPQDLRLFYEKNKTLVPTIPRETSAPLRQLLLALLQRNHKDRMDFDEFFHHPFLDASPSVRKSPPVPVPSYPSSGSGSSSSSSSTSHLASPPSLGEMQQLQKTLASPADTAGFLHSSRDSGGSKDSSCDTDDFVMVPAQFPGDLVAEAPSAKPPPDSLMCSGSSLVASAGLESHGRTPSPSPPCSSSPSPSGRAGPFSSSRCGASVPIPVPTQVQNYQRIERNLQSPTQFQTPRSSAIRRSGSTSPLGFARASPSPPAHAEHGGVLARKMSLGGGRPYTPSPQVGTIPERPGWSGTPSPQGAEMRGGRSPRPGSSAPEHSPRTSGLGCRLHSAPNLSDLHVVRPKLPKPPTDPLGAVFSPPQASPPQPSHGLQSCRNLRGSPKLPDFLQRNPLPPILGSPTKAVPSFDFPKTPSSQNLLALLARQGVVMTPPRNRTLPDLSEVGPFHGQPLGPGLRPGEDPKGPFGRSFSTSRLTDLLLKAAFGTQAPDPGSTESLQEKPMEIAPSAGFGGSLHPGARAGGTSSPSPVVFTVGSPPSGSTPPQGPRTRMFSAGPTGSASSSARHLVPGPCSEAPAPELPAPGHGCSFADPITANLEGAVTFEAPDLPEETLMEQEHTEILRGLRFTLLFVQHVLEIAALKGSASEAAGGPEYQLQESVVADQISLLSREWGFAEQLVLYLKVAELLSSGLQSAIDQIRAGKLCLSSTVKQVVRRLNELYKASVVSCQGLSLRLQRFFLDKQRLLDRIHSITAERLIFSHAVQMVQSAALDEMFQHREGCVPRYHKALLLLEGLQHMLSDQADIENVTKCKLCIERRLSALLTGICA
row,Compound,pIC50
1,"CS(=O)(=O)c1cccc(CNc2nc(Nc3ccc4c(c3)CCC(=O)N4)ncc2C(F)(F)F)c1 [compound 32, 6-(4-(3-(Methylsulfonyl)benzylamino)-5-(trifluoromethyl)pyrimidin-2-ylamino)-3,4-dihydroquinolin-2(1H)-one]",5.70 to 6.70
2,"CNC(=O)c1ccccc1Nc1nc(Nc2ccc3[nH]ccc3c2)ncc1Cl [compound 18, 2-(2-(1H-indol-5-ylamino)-5-chloropyrimidin-4-ylamino)-N-methylbenzamide]",5.70 to 6.70
3,"COCCNc1nc(Nc2cnc3[nH]ccc3c2)ncc1C(F)(F)F [compound 179, N4-(2-methoxyethyl)-N2-(1H-pyrrolo[2,3-b]pyridin-5-yl)-5-(trifluoromethyl)pyrimidine-2,4-diamine]",5.70 to 6.70
4,"CNC(=O)c1ccccc1Oc1nc(Nc2cc(Br)ccc2C)ncc1C(F)(F)F [compound 100, 2((2-((5-bromo-2-methylphenyl)amino)-5-(trifluoromethyl)pyrimidin-4-yl)oxy)-N-methylbenzamide]",< 5.70
5,"COc1ccc(Nc2ncc(C(F)(F)F)c(O)n2)cc1 [105b, 2-((4-methoxyphenyl)amino)-5-(trifluoromethyl)pyrimidin-4-ol]",< 5.70
6,"O=C1CCc2cc(Nc3nc(Nc4ccccc4N4CCOCC4)ncc3C(F)(F)F)ccc2N1 [118b, 6-((2-((2-morpholinophenyl)amino)-5-(trifluoromethyl)pyrimidin-4-yl)amino)-3,4-dihydroquinolin-2(1H)-one]",< 5.70
7,"O=C1CCc2cc(Nc3ncc(C(F)(F)F)c(SCc4ccccc4)n3)ccc2N1 [compound 62, 6-(4-(Benzylthio)-5-(trifluoromethyl)pyrimidin-2-ylamino)-3,4-dihydroquinolin-2(1H)-one]",> 6.70
8,"CNC(=O)c1ccccc1Nc1nc(Nc2cc(OC)c(OC)c(OC)c2)ncc1/C=C/c1ccccc1 [compound 71, (E)-N-Methyl-2-((5-styryl-2-((3,4,5-trimethoxyphenyl)amino)pyrimidin-4-yl)amino)benzamide]",> 6.70
9,"O=C1CCc2cc(Nc3ncc(C(F)(F)F)c(Nc4ccc5c(c4)CCC5)n3)ccc2N1 [compound 129, 6-((4-((2,3-dihydro-1H-inden-5-yl)amino)-5-(trifluoromethyl)pyrimidin-2-yl)amino)-3,4-dihydroquinolin-2(1H)-one]",> 6.70
10,"FC(F)(F)c1cnc(Nc2cnc3[nH]ccc3c2)nc1Nc1ccccc1 [181a, N4-phenyl-N2-(1H-pyrrolo[2,3-b]pyridin-5-yl)-5-(trifluoromethyl)pyrimidine-2,4-diamine]",> 6.70
11,"FC(F)(F)c1cnc(Nc2cnc3[nH]ccc3c2)nc1Nc1ccc2c(c1)OCO2 [compound 177, N4-(benzo[d][1,3]dioxol-5-yl)-N2-(1H-pyrrolo[2,3-b]pyridin-5-yl)-5-(trifluoromethyl)pyrimidine-2,4-diamine]",> 6.70
12,"Nc1nc(Nc2ccc3c(c2)OCO3)ncc1C(F)(F)F [165b, N^2-(benzo[d][1,3]dioxol-5-yl)-5-(trifluoromethyl)pyrimidine-2,4-diamine]",5.70 to 6.70
13,"CNC(=O)c1ccccc1Oc1nc(Nc2cc(OC)ccc2C)ncc1C(F)(F)F [compound 101, 2-((2-((5-methoxy-2-methylphenyl)amino)-5-(trifluoromethyl)pyrimidin-4-yl)oxy)-N-methylbenzamide]",< 5.70
14,"CNC(=O)c1ccccc1Nc1nc(Nc2ccccc2C)ncc1Cl [compound 53, 2-(5-Chloro-2-(o-tolylamino)pyrimidin-4-ylamino)-N-methylbenzamide]",< 5.70
15,"CNC(=O)c1ccccc1Nc1nc(Nc2cc(OC)c(OC)c(OC)c2)ncc1-c1ccccc1 [compound 73, N-Methyl-2-(5-phenyl-2-(3,4,5-trimethoxyphenylamino)pyrimidin-4-ylamino)benzamide]",> 6.70
16,"O=C1CCc2cc(Nc3nc(NC4CCCC4)ncc3C(F)(F)F)ccc2N1 [160b, 6-((2-(cyclopentylamino)-5-(trifluoromethyl)pyrimidin-4-yl)amino)-3,4-dihydroquinolin-2(1H)-one]",5.70 to 6.70
17,"Nc1ncc(C(F)(F)F)c(Nc2ccc3c(c2)OCO3)n1 [165a, N^4-(benzo[d][1,3]dioxol-5-yl)-5-(trifluoromethyl)pyrimidine-2,4-diamine]",5.70 to 6.70
18,"FC(F)(F)c1cnc(NC2Cc3ccccc3C2)nc1Nc1ccc2c(c1)OCO2 [163a, N^4-(benzo[d][1,3]dioxol-5-yl)-N^2-(2,3-dihydro-1H-inden-2-yl)-5-(trifluoromethyl)pyrimidine-2,4-diamine]",< 5.70
19,"O=C1CCc2cc(Nc3ncc(C(F)(F)F)c(Nc4nccs4)n3)ccc2N1 [compound 58, 6-(4-(Thiazol-2-ylamino)-5-(trifluoromethyl)pyrimidin-2-ylamino)-3,4-dihydroquinolin-2(1H)-one]",< 5.70
20,"CNC(=O)c1ccccc1Nc1nc(Nc2cc(OC)c(OC)c(OC)c2)ncc1C(F)(F)F [compound 36, N-Methyl-2-(5-(trifluoromethyl)-2-(3,4,5-trimethoxyphenylamino)pyrimidin-4-ylamino)benzamide]",< 5.70
21,"FC(F)(F)c1cnc(Nc2ccc3c(c2)OCO3)nc1N1CCC1 [166b, 4-(azetidin-1-yl)-N-(benzo[d][1,3]dioxol-5-yl)-5-(trifluoromethyl)pyrimidin-2-amine]",> 6.70
22,"CNC(=O)c1ccccc1Nc1nc(Nc2cc(OC)c(OC)c(OC)c2)ncc1Cl [compound 15, 2-(5-Chloro-2-(3,4,5-trimethoxyphenylamino)pyrimidin-4-ylamino)-N-methylbenzamide]",> 6.70
23,"COc1cnc(Nc2ccc3c(c2)CCC(=O)N3)nc1Nc1ccc2c(c1)CCC(=O)N2 [compound 135, 6,6′-((5-methoxypyrimidine-2,4-diyl)bis(azanediyl))bis(3,4-dihydroquinolin-2(1H)-one)]",< 5.70
24,"O=C1CCc2cc(Nc3ncc(C(F)(F)F)c(OC4Cc5ccccc5C4)n3)ccc2N1 [180a, 6-((4-((2,3-dihydro-1H-inden-2-yl)oxy)-5-(trifluoromethyl)pyrimidin-2-yl)amino)-3,4-dihydroquinolin-2(1H)-one]",> 6.70
25,"CNC(=O)c1ccccc1Oc1nc(Nc2ccccc2)ncc1Br [compound 111, 2-((5-bromo-2-(phenylamino)pyrimidin-4-yl)oxy)-N-methyl benzamide]",< 5.70
26,"FC(F)(F)c1cnc(Nc2ccc3c(c2)OCO3)nc1NCC1CC1 [167b, N^2-(benzo[d][1,3]dioxol-5-yl)-N^4-(cyclopropylmethyl)-5-(trifluoromethyl)pyrimidine-2,4-diamine]",> 6.70
27,"FC(F)Oc1ccccc1Nc1ncc(C(F)(F)F)c(Nc2ccccc2OC(F)F)n1 [120b, N^2,N^4-bis(2-(difluoromethoxy)phenyl)-5-(trifluoromethyl)pyrimidine-2,4-diamine]",5.70 to 6.70
28,"CS(=O)(=O)c1cccc(CNc2nc(Nc3ccc4c(c3)CC(=O)N4)ncc2C(F)(F)F)c1 [compound 33, 5-((4-((3-(Methylsulfonyl)benzyl)amino)-5-(trifluoromethyl)pyrimidin-2-yl)amino)indolin-2-one]",5.70 to 6.70
29,"COc1cccc(Nc2nc(Nc3ccc4c(c3)CCC(=O)N4)ncc2Br)c1 [compound 142, 6-((5-bromo-4-((3-methoxyphenyl)amino)pyrimidin-2-yl)amino)-3,4-dihydroquinolin-2(1H)-one]",> 6.70
